Measurements: patent publication US12234207B2, “Halo-(3-(phenylsulfonyl)prop-1-enyl)pyridine derivative and use thereof” (Cureverse Incorporated, priority 2018, dated 2025)
pEC50: −log10 of the molar value.

Assays:
Solubility in water = assay type: physicochemical
From the text: In the development of new drugs, the solubility of drugs is one of the very important factors associated with the bio-absorption rate. […] In addition, drugs with low solubility may crystallize in tissues or cause serious toxicity, and thus, the FDA requires additional research results on oral drugs with low solubility. Furthermore, low solubility may also be the biggest cause of failure in the development of candidate materials.

Nrf2 [1] = assay: Nrf2 functional cell-based assay (DisoveRx), luminescence; conditions: relative to Compound 15
CYP 3A4 = biological target: T1, CYP 3A4 (Homo sapiens, UniProt P08684); assay: Inhibition of CYP activity in human liver microsomes, 3A4; assay type: in vitro ADME; conditions: 10 μM compound, human liver microsomes 0.25 mg/mL; % activity relative to the negative control
T1 construct: from tissue; host or cells: human liver microsomes
Procedure: (§1) Thereafter, the reaction was terminated by adding an acetonitrile solution containing an internal standard substrate (terfenadine), followed by centrifugation (14,000 rpm, 4° C.) for 5 minutes. Subsequently, the supernatant was injected into the LC-MS/MS system, and the metabolites of the substrate drugs were simultaneously analyzed to evaluate the inhibitory ability of these compounds on drug metabolic enzymes. The metabolites of each CYP isoenzyme indicator drug generated through the above reaction were analyzed using the Shimadzu Nexera XR system and TSQ vantage (Thermo). A Kinetex C18 column was used as the HPLC column, and distilled water containing 0.1% formic acid and acetonitrile containing 0.1% formic acid were used as the mobile phase. The generated metabolites were quantified using the quantification mode of multiple reaction monitoring (MRM), and data were analyzed with Xcalibur (version 1.6.1).

Nrf2 [2] = assay: Nrf2 functional cell-based assay (DisoveRx), luminescence; conditions: for pEC50: U2OS cells, 6 hours incubation, concentration that activates by 50% relative to the maximum effect
Procedure: In order to confirm the pharmacological activity of the compounds synthesized according to Examples 1 to 18 of the present invention, the effects of the synthesized derivatives on inducing the activity of Nrf2, a major regulator of the defense against oxidative stress, were evaluated by constructing an Nrf2 functional cell-based assay (DisoveRx). Specifically, U2OS cells were used, and after the cell pellet was released with CP 0 reagent, the cells were loaded in an amount of 80 μL into a 96-well plate at a density of 1.5×10^4 cells/well and incubated for 24 hours. The compounds synthesized according to Examples 1 to 18 were diluted 3 times in DMSO at 7 different concentrations to prepare a stock solution. 10 μL. of each compound solution was mixed with 90 μL of CP 0 and added in an amount of 20 μL to each well of the 96-well plate, and each experiment was repeated three times. […] Substrate reagents 1 and 2 were added to the cell assay buffer and mixed, and then 50 μL of the substrate reagent was added to a 96-well plate per well, wrapped in foil, and incubated for 1 hour. Thereafter, the luminescence value was measured at all wavelengths and at integration time of 100 ms using a luminescence spectrophotometer (Molecular Devices). […] The results are shown in Table 5 below, and the efficacy of the compounds was compared as a percentage with respect to the sulforaphane-treated group. As another control group, a chalcone derivative, VSC2 ((F)-1-(2-((2-methoxyphenyl)sulfonyl)vinyl)-2-chlorobenzene, Woo et al., J. Med. Chem., 2014, 57:1473-1487), which has a parent structure similar to that of the present invention, and which has been confirmed to induce activation of Nrf2 through the structural changes of Keap1, was used.

CYP 1A2 = biological target: T2, CYP 1A2 (Homo sapiens, UniProt P05177); assay: Inhibition of CYP activity in human liver microsomes, 1A2; assay type: in vitro ADME; conditions: 10 μM compound, human liver microsomes 0.25 mg/mL; % activity relative to the negative control
T2 construct: from tissue; host or cells: human liver microsomes
T2 sequence (P05177 1-516): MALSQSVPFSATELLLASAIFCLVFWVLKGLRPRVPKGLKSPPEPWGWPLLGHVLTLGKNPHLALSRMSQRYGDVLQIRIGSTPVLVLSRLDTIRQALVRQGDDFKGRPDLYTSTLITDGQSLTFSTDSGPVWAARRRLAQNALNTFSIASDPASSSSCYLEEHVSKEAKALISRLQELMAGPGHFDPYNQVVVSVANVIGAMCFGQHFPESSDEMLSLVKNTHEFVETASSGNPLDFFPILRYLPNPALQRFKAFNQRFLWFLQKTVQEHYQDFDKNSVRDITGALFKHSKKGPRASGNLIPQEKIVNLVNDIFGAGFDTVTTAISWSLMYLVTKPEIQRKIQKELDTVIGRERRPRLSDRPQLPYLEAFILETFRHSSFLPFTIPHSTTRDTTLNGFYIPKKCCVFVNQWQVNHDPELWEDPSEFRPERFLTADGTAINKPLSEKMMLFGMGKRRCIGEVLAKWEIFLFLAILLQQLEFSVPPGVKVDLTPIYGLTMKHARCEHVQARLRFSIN
Procedure: as §1

CYP 2D6 = biological target: T3, CYP 2D6 (Homo sapiens, UniProt P10635); assay: Inhibition of CYP activity in human liver microsomes, 2D6; assay type: in vitro ADME; conditions: 10 μM compound, human liver microsomes 0.25 mg/mL; % activity relative to the negative control
T3 construct: from tissue; host or cells: human liver microsomes
Procedure: as §1

CYP 2C19 = biological target: T4, CYP 2C19 (Homo sapiens, UniProt P33261); assay: Inhibition of CYP activity in human liver microsomes, 2C19; assay type: in vitro ADME; conditions: 10 μM compound, human liver microsomes 0.25 mg/mL; % activity relative to the negative control
T4 construct: from tissue; host or cells: human liver microsomes
Procedure: as §1

CYP 2C9 = biological target: T5, CYP 2C9 (Homo sapiens, UniProt P11712); assay: Inhibition of CYP activity in human liver microsomes, 2C9; assay type: in vitro ADME; conditions: 10 μM compound, human liver microsomes 0.25 mg/mL; % activity relative to the negative control
T5 construct: from tissue; host or cells: human liver microsomes
Procedure: as §1

T4 sequence (P33261 whole entry): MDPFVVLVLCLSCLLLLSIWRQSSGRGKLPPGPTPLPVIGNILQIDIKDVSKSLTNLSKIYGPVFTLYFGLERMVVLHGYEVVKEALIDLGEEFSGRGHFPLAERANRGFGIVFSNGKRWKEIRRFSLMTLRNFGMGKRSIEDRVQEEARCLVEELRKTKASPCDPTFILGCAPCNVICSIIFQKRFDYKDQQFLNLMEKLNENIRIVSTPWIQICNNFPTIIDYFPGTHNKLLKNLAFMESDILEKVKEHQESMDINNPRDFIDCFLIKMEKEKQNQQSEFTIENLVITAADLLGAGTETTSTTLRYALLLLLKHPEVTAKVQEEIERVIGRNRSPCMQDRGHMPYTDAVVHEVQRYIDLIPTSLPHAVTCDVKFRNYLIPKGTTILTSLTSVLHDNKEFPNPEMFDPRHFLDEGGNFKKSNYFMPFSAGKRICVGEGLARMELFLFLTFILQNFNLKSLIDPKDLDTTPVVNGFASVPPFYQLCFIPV
T1 sequence (P08684 whole entry): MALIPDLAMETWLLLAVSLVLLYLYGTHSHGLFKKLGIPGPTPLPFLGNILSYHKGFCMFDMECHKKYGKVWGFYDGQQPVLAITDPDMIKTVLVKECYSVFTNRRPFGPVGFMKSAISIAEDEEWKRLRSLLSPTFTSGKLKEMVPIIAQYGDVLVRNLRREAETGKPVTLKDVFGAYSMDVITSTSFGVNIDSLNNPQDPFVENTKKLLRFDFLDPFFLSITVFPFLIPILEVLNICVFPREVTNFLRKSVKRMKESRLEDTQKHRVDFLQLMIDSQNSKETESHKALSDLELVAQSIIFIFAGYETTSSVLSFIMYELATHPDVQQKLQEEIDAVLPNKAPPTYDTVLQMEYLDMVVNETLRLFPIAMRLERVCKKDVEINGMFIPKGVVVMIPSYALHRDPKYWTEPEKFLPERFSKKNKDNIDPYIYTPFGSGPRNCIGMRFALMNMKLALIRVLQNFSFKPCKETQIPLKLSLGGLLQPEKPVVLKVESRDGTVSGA
T5 sequence (P11712 whole entry): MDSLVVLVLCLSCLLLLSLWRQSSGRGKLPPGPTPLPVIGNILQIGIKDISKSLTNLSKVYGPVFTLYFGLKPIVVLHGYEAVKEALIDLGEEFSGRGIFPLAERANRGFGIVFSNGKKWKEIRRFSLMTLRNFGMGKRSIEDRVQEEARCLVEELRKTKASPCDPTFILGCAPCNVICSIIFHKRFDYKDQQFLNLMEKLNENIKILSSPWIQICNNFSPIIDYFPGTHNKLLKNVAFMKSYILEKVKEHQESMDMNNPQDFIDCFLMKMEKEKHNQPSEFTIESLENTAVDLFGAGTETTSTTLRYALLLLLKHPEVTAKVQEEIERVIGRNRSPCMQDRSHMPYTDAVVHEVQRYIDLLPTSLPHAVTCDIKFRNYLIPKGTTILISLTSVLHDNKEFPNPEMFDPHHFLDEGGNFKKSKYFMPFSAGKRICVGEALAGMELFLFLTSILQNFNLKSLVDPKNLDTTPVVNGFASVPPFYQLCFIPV
T3 sequence (P10635 whole entry): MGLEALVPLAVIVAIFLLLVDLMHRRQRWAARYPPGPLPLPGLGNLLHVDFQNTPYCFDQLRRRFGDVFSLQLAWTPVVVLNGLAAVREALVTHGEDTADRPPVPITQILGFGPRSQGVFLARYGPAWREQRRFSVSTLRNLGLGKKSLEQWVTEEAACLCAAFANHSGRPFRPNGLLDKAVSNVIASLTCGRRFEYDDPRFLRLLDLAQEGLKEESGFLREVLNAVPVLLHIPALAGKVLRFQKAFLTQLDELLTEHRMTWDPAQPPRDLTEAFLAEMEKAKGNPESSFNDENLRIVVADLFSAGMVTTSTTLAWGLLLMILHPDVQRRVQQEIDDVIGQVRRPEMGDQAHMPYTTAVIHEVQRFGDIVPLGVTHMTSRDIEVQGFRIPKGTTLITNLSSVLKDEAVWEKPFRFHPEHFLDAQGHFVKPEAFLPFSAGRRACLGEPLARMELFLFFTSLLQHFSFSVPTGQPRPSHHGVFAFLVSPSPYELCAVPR

**Q.** With `COc1ccccc1S(=O)(=O)/C=C/c1cccnc1Cl` [Comparative Example 2, (E)-2-chloro-3-(2-(2-methoxyphenylsulfonyl)vinyl)pyridine, reference compound] as the compound, how does the solubility (Solubility in water) read?
**A.** The solubility was < 10 µg/mL.

**Q.** What about the “Effect of inducing Nrf2 activity as % of the level of Compound 15” value (Nrf2 [1]) of the same compound?
**A.** Its value is ~10%.

**Q.** With `O=S(=O)(/C=C/c1ncccc1F)c1ccccc1F` [Compound 1, (E)-3-fluoro-2-(2-(2-fluorophenylsulfonyl)vinyl)pyridine] as the compound, how does the “CYP 3A4 activity” value (CYP 3A4) read?
**A.** Its value is 100.0%.

**Q.** And the pEC50 (Nrf2 [2])?
**A.** Its pEC50 is 6.75.

**Q.** And the “CYP 1A2 activity” value (CYP 1A2)?
**A.** Its value is 96.0%.

**Q.** What about the “CYP 2D6 activity” value (CYP 2D6) of the same compound?
**A.** Its value is 87.0%.

**Q.** What about the “CYP 2C19 activity” value (CYP 2C19) of the same compound?
**A.** The value was 65.9%.

**Q.** What about the “CYP 2C9 activity” value (CYP 2C9) of the same compound?
**A.** The value was 100.0%.

**Q.** With `O=S(=O)(/C=C/c1ncccc1F)c1cccc(F)c1` [Compound 2, (E)-3-fluoro-2-(2-(3-fluorophenylsulfonyl)vinyl)pyridine] as the compound, how does the pEC50 (Nrf2 [2]) read?
**A.** Its pEC50 is 6.32.

**Q.** With `O=S(=O)(/C=C/c1ncccc1F)c1ccc(F)cc1` [Compound 3, (E)-3-fluoro-2-(2-(4-fluorophenylsulfonyl)vinyl)pyridine] as the compound, how does the pEC50 (Nrf2 [2]) read?
**A.** Its pEC50 is 6.27.

**Q.** Which “CYP 3A4 activity” value (CYP 3A4) does the source give for `O=S(=O)(/C=C/c1ncccc1Cl)c1ccccc1F` [Compound 4, (E)-3-chloro-2-(2-(2-fluorophenylsulfonyl)vinyl)pyridine] here?
**A.** The value was 100.0%.

**Q.** And the pEC50 (Nrf2 [2])?
**A.** The pEC50 was 7.52.

**Q.** What about the “CYP 1A2 activity” value (CYP 1A2) of the same compound?
**A.** Its value is 96.0%.

**Q.** And the “CYP 2D6 activity” value (CYP 2D6)?
**A.** Its value is 86.0%.

**Q.** What about the “CYP 2C19 activity” value (CYP 2C19) of the same compound?
**A.** Its value is 47.3%.

**Q.** And the “CYP 2C9 activity” value (CYP 2C9)?
**A.** Its value is 62.6%.

**Q.** With `O=S(=O)(/C=C/c1ncccc1Cl)c1cccc(F)c1` [Compound 5, (E)-3-chloro-2-(2-(3-fluorophenylsulfonyl)vinyl)pyridine] as the compound, how does the pEC50 (Nrf2 [2]) read?
**A.** The pEC50 was 7.08.

**Q.** With `O=S(=O)(/C=C/c1ncccc1Cl)c1ccc(F)cc1` [Compound 6, (E)-3-chloro-2-(2-(4-fluorophenylsulfonyl)vinyl)pyridine] as the compound, how does the pEC50 (Nrf2 [2]) read?
**A.** Its pEC50 is 6.64.

**Q.** With `O=S(=O)(/C=C/c1ncccc1F)c1ccccc1Cl` [Compound 7, (E)-2-(2-(2-chlorophenylsulfonyl)vinyl)-3-fluoropyridine] as the compound, how does the pEC50 (Nrf2 [2]) read?
**A.** The pEC50 was 6.91.

**Q.** With `O=S(=O)(/C=C/c1ncccc1F)c1cccc(Cl)c1` [Compound 8, (E)-2-(2-(3-chlorophenylsulfonyl)vinyl)-3-fluoropyridine] as the compound, how does the pEC50 (Nrf2 [2]) read?
**A.** Its pEC50 is 6.70.

**Q.** With `O=S(=O)(/C=C/c1ncccc1F)c1ccc(Cl)cc1` [Compound 9, (E)-2-(2-(4-chlorophenylsulfonyl)vinyl)-3-fluoropyridine] as the compound, how does the pEC50 (Nrf2 [2]) read?
**A.** Its pEC50 is 6.54.

**Q.** With `O=S(=O)(/C=C/c1ncccc1Cl)c1ccccc1Cl` [Compound 10, (E)-3-chloro-2-(2-(2-chlorophenylsulfonyl)vinyl)pyridine] as the compound, how does the pEC50 (Nrf2 [2]) read?
**A.** Its pEC50 is 7.59.

**Q.** And the “Nrf2 activation effect relative to sulforaphane” value (Nrf2 [2]; ratio to sulforaphane)?
**A.** The value was ≥ 15 times.

**Q.** With `O=S(=O)(/C=C/c1ncccc1Cl)c1cccc(Cl)c1` [Compound 11, (E)-3-chloro-2-(2-(3-chlorophenylsulfonyl)vinyl)pyridine] as the compound, how does the pEC50 (Nrf2 [2]) read?
**A.** The pEC50 was 7.34.

**Q.** With `O=S(=O)(/C=C/c1ncccc1Cl)c1ccc(Cl)cc1` [Compound 12, (E)-3-chloro-2-(2-(4-chlorophenylsulfonyl)vinyl)pyridine] as the compound, how does the pEC50 (Nrf2 [2]) read?
**A.** Its pEC50 is 7.19.

**Q.** Which results are given for `O=S(=O)(/C=C/c1cccc(Cl)n1)c1ccccc1Cl` [Compound 13, (E)-2-chloro-6-(2-(2-chlorophenylsulfonyl)vinyl)pyridine]?
**A.** CYP 3A4 activity (CYP 3A4): 86.0%; pEC50 (Nrf2 [2]): 6.83; CYP 1A2 activity (CYP 1A2): 94.0%; CYP 2D6 activity (CYP 2D6): 100.0%; CYP 2C19 activity (CYP 2C19): 40.0%; CYP 2C9 activity (CYP 2C9): 100.0%

**Q.** With `O=S(=O)(/C=C/c1cccnc1Cl)c1ccccc1Cl` [Compound 14, (E)-2-chloro-3-(2-(2-chlorophenylsulfonyl)vinyl)pyridine] as the compound, how does the pEC50 (Nrf2 [2]) read?
**A.** The pEC50 was 6.42.

**Q.** Which “CYP 2C9 activity” value (CYP 2C9) does the source give for `CN1CCN(C(=O)COc2ccc(S(=O)(=O)/C=C/c3ncccc3F)cc2)CC1.Cl` [Compound 17, (E)-2-(4-(2-(3-fluoropyridin-2-yl)vinylsulfonyl)phenoxy)-1-(4-methylpiperazin-1-yl)ethanone hydrochloride] here?
**A.** The value was 122.0%.
